From patent US9073943B2, “Antiviral compounds with a dibenzooxaheterocycle moiety” (Lupin Limited, priority 2012, dated 2015)

Tests used:
[1] = tested on: Huh7.5/Con1/SG-Neo(I)hRluc2aUb cell line persistently expressing a bicistronic genotype 1b replicon; assay: HCV replicon assay, genotype 1b (Renilla luciferase readout); type: cell-based; conditions: Hepatitis C virus, genotype 1b replicon in Huh 7.5 cells, 72 h, read-out: Gt1b IC50
Excerpt: (§1) Anti-viral activity of the compounds of the invention was monitored using an HCV replicon assay. The Huh7.5/Con1/SG-Neo(I)hRluc2aUb cell line persistently expressing a bicistronic genotype 1b replicon in Huh 7.5 cells and the Huh7.5/J6/JFH1/EMCVIRES/hRlucNeo cell line expressing a bicistronic genotype 2a replicon in Huh 7.5 cells were obtained from Apath LLC. These cell lines were used to test inhibition of replicon levels by test compound using Renilla luciferase enzyme activity readout as a measure of viral replication efficiency.
(§2) Briefly, 7000-7500 cells were seeded in 96 well black clear bottom plates and allowed to adhere overnight. The next day each compound was added in triplicate to the cells at the desired concentration with a final DMSO concentration of 0.5%. Cells in media alone and cells incubated without drug with 0.5% DMSO served as controls. The plates were incubated for 72 h at 37° C. prior to running the luciferase assay. Enzyme activity was measured using Renilla-Glo Luciferase Assay kit from Promega as per the manufacturer's instructions. The following equation was used to generate the percent inhibition value for each test concentration.
(§3) The IC50 value was determined using GraphPad Prism and the following equation: Y=Bottom+(Top−Bottom)/(1+10^((LogIC50−X)*Hill slope))
(§4) IC50 values/% inhibitions of compounds were determined 2-3 times in the replicon assays.

[2] = tested on: Huh7.5/J6/JFH1/EMCVIRES/hRlucNeo cell line expressing a bicistronic genotype 2a replicon; assay: HCV replicon assay, genotype 2a (Renilla luciferase readout); type: cell-based; conditions: Hepatitis C virus, genotype 2a replicon in Huh 7.5 cells, 72 h, read-out: Gt2a IC50
Excerpt: as §1, §2, §3, §4

`COC(=O)N[C@H](C(=O)N1CCC[C@H]1c1ncc(-c2ccc3c(c2)OCCCOc2cc(-c4[nH]c([C@@H]5CCCN5C(=O)[C@@H](NC(=O)OC)C(C)C)nc4Cl)ccc2-3)[nH]1)C(C)C` [Compound 2, methyl ((S)-1-((S)-2-(5-(11-(2-((S)-1-((S)-2-(methoxycarbonyl)amino-3-methylbutanoyl)pyrrolidin-2-yl)-1H-imidazol-5-yl)-7,8-dihydro-6H-dibenzo[f,h][1,5]dioxonin-3-yl)-4-chloro-1H-imidazol-2-yl)pyrrolidin-1-yl)-3-methyl-1-oxobutan-2-yl)carbamate] showed an IC50 [1] of 0.051 nM and an IC50 [2] of 0.053 nM.
`COC(=O)N[C@H](C(=O)N1CCC[C@H]1c1nc(Cl)c(-c2ccc3c(c2)OCCCOc2cc(-c4[nH]c([C@@H]5CCCN5C(=O)[C@@H](NC(=O)OC)C(C)C)nc4Cl)ccc2-3)[nH]1)C(C)C` [Compound 3, dimethyl ((2S,2′S)-((2S,2′S)-2,2′-(5,5′-(7,8-dihydro-6H-dibenzo[f,h][1,5]dioxonine-3,11-diyl)bis(4-chloro-1H-imidazole-5,2-diyl))bis(pyrrolidine-2,1-diyl))bis(3-methyl-1-oxobutane-2,1-diyl))dicarbamate] showed an IC50 [1] of 0.018 nM and an IC50 [2] of 0.037 nM.
With `COC(=O)N[C@H](C(=O)N1CCC[C@H]1c1ncc(-c2ccc3c(c2)OCC(C)(C)COc2cc(-c4[nH]c([C@@H]5CCCN5C(=O)[C@@H](NC(=O)OC)C(C)C)nc4Cl)ccc2-3)[nH]1)C(C)C` [Compound 6, methyl ((S)-1-((S)-2-(5-(11-(2-((S)-1-((S)-2-(methoxycarbonyl)amino-3-methylbutanoyl)pyrrolidin-2-yl)-4-chloro-1H-imidazol-5-yl)-7,7-dimethyl-7,8-dihydro-6H-dibenzo[f,h][1,5]dioxonin-3-yl)-1H-imidazol-2-yl)pyrrolidin-1-yl)-3-methyl-1-oxobutan-2-yl)carbamate] the IC50 [1] was 0.021 nM and the IC50 [2] was 0.671 nM.
Work on `COC(=O)N[C@H](C(=O)N1CCC[C@H]1c1nc(Cl)c(-c2ccc3c(c2)OCC(C)(C)COc2cc(-c4[nH]c([C@@H]5CCCN5C(=O)[C@@H](NC(=O)OC)C(C)C)nc4Cl)ccc2-3)[nH]1)C(C)C` [Compound 7, dimethyl ((2S,2′S)-((2S,2′S)-2,2′-(5,5′-(7,7-dimethyl-7,8-dihydro-6H-dibenzo[f,h][1,5]dioxonine-3,11-diyl)bis(4-chloro-1H-imidazole-5,2-diyl))bis(pyrrolidine-2,1-diyl))bis(3-methyl-1-oxobutane-2,1-diyl))dicarbamate] yielded an IC50 [1] of 0.004 nM and an IC50 [2] of 0.249 nM.
